Test results published in article PMC6492175, “Glio‐ and neuro‐protection by prosaposin is mediated by orphan G‐protein coupled receptors GPR37L1 and GPR37” (Glia, 2018).
Read-outs that look alike come from different tables or passages of the source.

Key:
[1] = system: astrocytes; test: DAPI staining, astrocyte cell number; format: cell-based, Wistar rat; conditions: for cell numbers (DAPI) vs control: n = 4, triplicates, Dunnett's
Experimental: Astrocytes were seeded in 96‐well plate (1 × 10^4 per well) and fixed in 4% paraformaldehyde for 5 min, washed in PBS three times for 5 min each time before and after incubating with 1 μg/mL DAPI for 10 min. Round and whole nuclei in nine fields of view per well were counted using ImageJ (NIH, Bethesda, MD).

[2] = system: astrocytes; test: Scratch wound assay (astrocyte migration); format: cell-based, Wistar rat; conditions: for wound closure: monitored 72 hr, n = 5, triplicates; for ability of astrocytes to close the wound: PDM, n = 6, triplicates
Experimental: A wound recovery assay was carried out to analyze the migration of astrocytes using the IncuCyte system (Essen BioScience Inc., Ann Arbor, MI). Primary astrocytes were seeded in ImageLock 96‐well plates (4,379, Essen BioScience) at a density of 4 × 10^4 per well. After 24 hr, standardized and reproducible (700–800 μm wide) scratch “wounds” were created in all wells using a dedicated device. Cultures were exposed to different testing conditions, for example, stressors, and were maintained and imaged at hourly intervals up to 72 hr.
Cell density was measured in the scratch area and compared to undisrupted adjacent monolayer. Relative wound density (%), a measure of wound recovery, was calculated using the formula: Relative wound density (%) = (Density of wound region at certain time point – Initial density of wound region)/(Density of intact cell region at certain time point − Initial density of wound) × 100%.

[3] = system: PSAP; test: Immunodetection (Western blot) of PSAP in neuron-astrocyte co-culture media; format: cell-based, Wistar rat; conditions: H2O2 stress applied to neurons, Figure S9
[4] = system: primary astrocytes; conditions: 5 hr, LDH 24 hr later, PDM
Experimental: Primary cultures of astrocytes were prepared from the cerebral cortices, cerebellum, and brainstem from Wistar rat pups (P2) following protocols described previously (1–3). Briefly, the brains of Wistar P2 pups were dissected out, crudely cross‐chopped and bathed in a solution containing HBSS, DNase I (0.04 mg/mL), trypsin from bovine pancreas (0.25 mg/mL) and BSA (3 mg/mL). The preparation was agitated at 37 °C for 15 min. Trypsinization of the brain tissue was terminated by the addition of equal volumes of culture media comprised of DMEM, 10% heat‐inactivated FBS, 100 U/mL penicillin, and 0.1 mg/mL streptomycin and then centrifuged at 2000 rpm, at room temperature (RT) for 10 min. The supernatant was aspirated, and the remaining pellet was resuspended in 15 mL HBSS containing BSA (3 mg/mL) and DNase I (0.04 mg/mL) and triturated gently. After the cell debris had settled, the cell suspension was filtered through a 40‐μm cell strainer (BD Falcon, BD Biosciences, Franklin Lakes, NJ) and cells were collected after centrifugation. Cells were seeded in a T75 flask containing culture media (see above) and maintained at 37 °C with 5% CO2. Once the cultures reached confluence and 1 week later, the flasks were mildly shaken overnight to remove microglia and oligodendrocytes. When astrocytes were seeded for experiments, media was changed to DMEM supplemented with 5% FBS instead of 10% FBS.
Lactate dehydrogenase (LDH) release from damaged cells was assessed colorimetrically with LDH Cytotoxicity Assay Kit (Pierce) according to the manufacturer's instructions. Activity is proportional to colorimetric reduction of tetrazolium salt measured at 490 nm. Cytotoxicity was normalized to maximal LDH activity as released from cells acutely exposed to Triton X‐100, and calculated using the formula: % Cytotoxicity = (Compound‐treated LDH activity – Spontaneous LDH activity)/(Maximum LDH activity – Spontaneous LDH activity) × 100%.
The media was then replaced by fresh PDM with or without TX14(A). Cells were incubated for a further 24 hr before carrying out the LDH reaction on 50 μL of media.

[5] = system: GPR37L1/GPR37; test: Luminescence-based GloSensor cAMP assay in astrocytes; format: cell-based, Wistar rat; conditions: NKH477 1 μM, rat astrocytes
Experimental: The GloSensor assay uses genetically encoded biosensor variants with cAMP binding domains fused to mutant forms of Photinus pyralis luciferase. The luminescence of the reporter increases directly proportionally to the amount of cAMP present. Astrocytes were seeded in 96‐well plates and transduced with an AVV bearing the CMV‐driven GLO22F at multiplicity of infection (MOI) 10. After 24 hr transduction, media was exchanged for 100 μL HEPES‐buffered HBSS (pH 7.6). Cells were then incubated with 0.731 mM beetle luciferin for 2 hr in the dark. After baseline reading, NKH477 and/or TX14(A) were added to the wells and incubated for 20 min. Luminescence measurements were obtained using a Tecan microplate reader (Infinite M200 PRO).

[6] = target: GPR37L1 (rat, endogenous in astrocytes) (rat (endogenous in primary astrocytes)) (UniProt Q9QYC5)
[7] = target: GPR37 (rat, endogenous in astrocytes) (rat (endogenous in primary astrocytes)) (UniProt Q9QYC6)
[8] = system: neuroblastoma NS20 line; set-up: method as in O'Brien et al., 1994; conditions: ref O'Brien et al., 1994; cited from earlier work
[9] = target: neuroblastoma NS20 line; set-up: method as in O'Brien et al., 1994; conditions: radio-labeled Sap C, ref O'Brien et al., 1994, read-out: Kd of specific binding; cited from earlier work
[10] = system: receptor of ~54 kDa; conditions: ref Hiraiwa et al., 1997; cited from earlier work
[11] = system: gerbils; set-up: method as in Sano et al., 1994; conditions: recombinant, chronic icv infusion, ref Sano et al., 1994; cited from earlier work

Chain of GPR37L1 (rat, endogenous in astrocytes) (rat (endogenous in primary astrocytes)) (Q9QYC5 25-481): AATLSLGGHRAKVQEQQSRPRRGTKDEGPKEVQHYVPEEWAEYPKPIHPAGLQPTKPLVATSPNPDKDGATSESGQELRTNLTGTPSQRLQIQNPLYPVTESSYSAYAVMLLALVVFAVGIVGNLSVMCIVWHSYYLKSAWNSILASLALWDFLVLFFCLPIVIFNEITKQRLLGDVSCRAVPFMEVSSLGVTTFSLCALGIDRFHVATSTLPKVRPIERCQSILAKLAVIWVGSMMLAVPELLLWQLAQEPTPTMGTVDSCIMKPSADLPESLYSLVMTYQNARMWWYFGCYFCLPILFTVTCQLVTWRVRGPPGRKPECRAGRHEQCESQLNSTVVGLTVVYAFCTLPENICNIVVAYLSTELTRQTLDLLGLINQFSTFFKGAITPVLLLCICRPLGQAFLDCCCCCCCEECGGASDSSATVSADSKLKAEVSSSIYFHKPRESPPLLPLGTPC
Chain of GPR37 (rat, endogenous in astrocytes) (rat (endogenous in primary astrocytes)) (Q9QYC6 27-603): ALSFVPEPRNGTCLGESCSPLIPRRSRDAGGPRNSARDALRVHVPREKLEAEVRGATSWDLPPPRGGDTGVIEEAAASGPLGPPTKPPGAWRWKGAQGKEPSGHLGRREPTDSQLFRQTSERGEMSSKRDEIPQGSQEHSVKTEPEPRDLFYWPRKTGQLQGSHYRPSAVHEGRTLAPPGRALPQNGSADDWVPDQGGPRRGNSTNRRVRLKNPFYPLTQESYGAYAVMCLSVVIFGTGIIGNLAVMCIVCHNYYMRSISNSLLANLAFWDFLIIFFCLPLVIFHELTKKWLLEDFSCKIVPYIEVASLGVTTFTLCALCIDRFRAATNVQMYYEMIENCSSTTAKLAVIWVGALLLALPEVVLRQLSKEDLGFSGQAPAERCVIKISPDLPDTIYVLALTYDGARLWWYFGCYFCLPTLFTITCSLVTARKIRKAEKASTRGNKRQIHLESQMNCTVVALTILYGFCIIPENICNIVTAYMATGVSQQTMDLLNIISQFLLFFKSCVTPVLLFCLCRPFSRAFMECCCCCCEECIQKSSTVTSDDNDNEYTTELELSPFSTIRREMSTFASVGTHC

Molecule: O=C(Nc1ncnc2c1ncn2[C@@H]1O[C@@H]2COP(=O)(O)O[C@H]2[C@H]1O)c1ccccc1 [6‐BenZ‐cAMP]
- cell numbers (DAPI) vs control ([1]; 6-BenZ-cAMP 500 μM): significantly decreased cell numbers as compared to control
- wound closure ([2]; 6-benz-cAMP 250–1,000 μM, concentration-dependent): greatly slowed down wound closure

Molecule: CO[C@@H]1[C@@H]2OP(=O)(O)OC[C@H]2O[C@H]1n1c(Sc2ccc(Cl)cc2)nc2c(N)ncnc21 [8‐pCPT‐2′‐O‐Me‐cAMP]
- cell numbers (DAPI) vs control ([1]; 8-pCPT-2′-O-Me-cAMP 1,000 μM): significantly decreased cell numbers as compared to control
- wound closure ([2]; 8-pCPT-2′-O-Me-cAMP 250–1,000 μM): had no effect

Molecule: OO [H2O2]
- ability of astrocytes to close the wound ([2]; H2O2, 5 hr pre-exposure, 48 hr): drastically inhibited their ability to close the wound
- PSAP in co-culture media [3]: increase in PSAP in co‐culture media in response to H2O2 stress
- cytotoxicity (LDH release) ([4]; H2O2 250 μM): comparable degree of cytotoxicity

Molecule: C=C[C@@]1(C)CC(=O)[C@]2(O)[C@@]3(C)[C@@H](O)CCC(C)(C)[C@@H]3[C@H](OC(=O)CCN(C)C)[C@H](OC(C)=O)[C@@]2(C)O1.Cl [NKH477]
- cell numbers (DAPI) vs control ([1]; NKH477 10 μM): significantly decreased cell numbers as compared to control
- increase of baseline cAMP levels [5]: ~ 20 fold

Molecule: C=C(C)[C@H]1Cc2c(ccc3c2O[C@@H]2COc4cc(OC)c(OC)cc4[C@@H]2C3=O)O1 [rotenone]
- cytotoxicity (LDH release) ([4]; rotenone 100 μM): comparable degree of cytotoxicity

Molecule: CN[C@@H]1C[C@H]2O[C@@](C)([C@@H]1OC)n1c3ccccc3c3c4c(c5c6ccccc6n2c5c31)C(=O)NC4 [staurosporine]
- ability of astrocytes to close the wound ([2]; staurosporine, 5 hr pre-exposure, 48 hr): drastically inhibited their ability to close the wound
- cytotoxicity (LDH release) ([4]; staurosporine 200 nM): comparable degree of cytotoxicity

Molecule: prosaptide TX14(A) (peptide)
- inhibition of NKH477 (1 μM)-raised cAMP in rat astrocytes, GloSensor luminescence, concentration-response of TX14(A); obliterated by combined knock-down of GPR37L1 and GPR37 [6]: 17.8 nM
- percent inhibition of NKH477-mediated cAMP production in rat astrocytes at the maximal concentration of TX14(A) used (200 nM), GloSensor [6]: 40%
- inhibition of NKH477 (1 μM)-raised cAMP in rat astrocytes, GloSensor luminescence, concentration-response of TX14(A); obliterated by combined knock-down of GPR37L1 and GPR37 [7]: 17.8 nM
- percent inhibition of NKH477-mediated cAMP production in rat astrocytes at the maximal concentration of TX14(A) used (200 nM), GloSensor [7]: 40%

B1: Sap C: Saposin C, fragment of prosaposin (protein, UniProt P07602 311-390, looked up)
Saposin-C: SDVYCEVCEFLVKEVTKLIDNNKTEKEILDAFDKMCSKLPKSLSEECQEVVDTYGSSILSILLEEVSPELVCSMLHLCSG
modifications: Saposin-C
notes: Saposin C, fragment of prosaposin
- neurotrophic activity [8]: identified as neurotrophic factors
- Kd [9]: 0.019 nM
- interaction with receptor (molecular mass) [10]: interacts with a receptor of ~54 kDa

B2: PSAP: prosaposin, neurotrophic factor, precursor of Saposin C (protein)
chain: SPVLGLRECTRGSAVWCQNVKTAADCGAVQHCLQTVWSKPTVKSLPCDICKDVITAAGNLLKDNATEQEILMYLERTCDWLPKPNMSASCKEIVDSYLPVILDMIKGQMSHPGEVCSALNLCESLQKHLAELNHQKQLESNQIPELDMAEVVAPFMANIPFLLYPQDGSHSKPQPKKANGNVCQDCIQLVTDVQEALRTNSTFVEALVDHAKEECDRLGPGMSDMCKNYINQYSEVAIQMVMHMQPKEICVLAGFCDEVKEMPMKTLVPAEVVSENVIPALGLVEPIKKDPAPAKADIYCEVCEFVVKEVAKLIDNNRTEEEILHALDKVCSKLPTSLAEQCQEVVDTYGSSILSILLDEASPELVCSMLHLCSSRGLPAATVRVMPRKDGGFCEVCKKLVGYLDRNLEKNSTKEQILAALEKGCSFLPDQYRKQCDQFVTEYEPVLIEILVEVMDPSFVCLKIGACPAAHKPLLGAEKCVWGPSYWCQNMESAALCNAVEHCRRHVWN
- number of cells in cultures (DAPI) ([1]; TX14(A) 100 nM in PDM, or PSAP depletion, n = 15): neither depletion of PSAP nor addition of TX14(A) affected the number of cells in cultures
- neurotrophic activity [8]: identified as neurotrophic factors
- wound closure after PSAP depletion ([2]; PSAP depleted by immunoadsorption vs FBS-containing media, 48 hr): drastically slowed down by PSAP depletion
- ischemia-induced learning deficits and neuronal loss [11]: almost completely prevented ischemia‐induced learning deficits and neuronal loss
